Molecules are shown by their SMILES. Activity calls are given as the source filed them. The calls are words filed in the database; no cut-off is given here.

Experiment [1] deals with MCF7. The experiment can be described thus: Antiproliferative activity against human MCF7 cells after 5 days by WST-8 assay. In kind it is functional, cell-based. (Tetrazolium dyes change colour on reduction, which living cells bring about.)
In experiment [2] the test system is MCF7. The experiment can be described thus: Estrogenic activity in human MCF7 cells. The experiment is classed as functional, cell-based.
Experiment [3] concerns MCF7. Kind of experiment: Ratio of tamoxifen IC50 to compound IC50 for human MCF7 cells. The experiment is classed as functional.
Setting [4] is: Homo sapiens, MCF7, 120 h, read-out: IC50.

Broadly, the IC50 is the concentration that inhibits the measured activity by half. On to `Oc1ccc(N(Cc2ccccc2)c2ccc(OCCN3CCCCC3)cc2)cc1`, for which the Activity entry in the experiment with MCF7 [1] is “Dose-dependent effect”. Moreover, the IC50 with MCF7 [1] (setting [4]) is 800 nM. Further, in the experiment on MCF7 [2], the outcome was inactive.

With `CCCCCCN(c1ccc(O)cc1)c1ccc(OCCN2CCCCC2)cc1`, the Activity entry in the experiment with MCF7 [1] is “Dose-dependent effect”. The IC50 with MCF7 [1] (setting [4]) stood at 130 nM. For the same compound, the outcome in the experiment on MCF7 [2] was inactive. Also, the “Ratio IC50” value in the experiment with MCF7 [3] turned out to be 10.

As to `Oc1ccc(N(Cc2ccccc2)c2ccc(OCCN3CCCCCC3)cc2)cc1`, in the experiment on MCF7 [1], the Activity entry was “Dose-dependent effect”. Further, in the experiment with MCF7 [1] (setting [4]), the IC50 amounted to 660 nM. In the experiment on MCF7 [2], the result was inactive.

As to `CN(C)CCOc1ccc(N(c2ccc(O)cc2)S(=O)(=O)c2ccccc2)cc1`, the Activity entry in the experiment with MCF7 [1] was “Dose-dependent effect”. The IC50 with MCF7 [1] (setting [4]) was determined as 9300 nM. For the same compound, in the experiment with MCF7 [2], the outcome was inactive.

Turning to `CCCCCCN(c1ccc(O)cc1)c1ccc(OCCN2CCCCCC2)cc1`, the Activity result with MCF7 [1] is “Dose-dependent effect”. Further, the IC50 with MCF7 [1] (setting [4]) was 1400 nM. Also, the outcome with MCF7 [2] was inactive.

On to `Oc1ccc(N(Cc2ccccc2)c2ccc(OCCN3CCCC3)cc2)cc1`, for which the Activity result with MCF7 [1] is “Dose-dependent effect”. For the same compound, the IC50 with MCF7 [1] (setting [4]) worked out at 1300 nM. For the same compound, in the experiment with MCF7 [2], the result was inactive.

On to `CN(C)CCOc1ccc(N(Cc2ccccc2)c2ccc(O)cc2)cc1`, for which, in the experiment with MCF7 [1], the Activity result was “Dose-dependent effect”. Also, the IC50 with MCF7 [1] (setting [4]) amounted to 4400 nM. Moreover, the result in the experiment on MCF7 [2] was inactive.

For the compound `CCCCCCN(c1ccc(O)cc1)c1ccc(OCCN2CCCC2)cc1`, in the experiment on MCF7 [1], the Activity result was “Dose-dependent effect”. In addition, in the experiment with MCF7 [1] (setting [4]), the IC50 turned out to be 2700 nM. The result in the experiment with MCF7 [2] was inactive.

On to `CC/C(=C(\c1ccccc1)c1ccc(OCCN(C)C)cc1)c1ccccc1` [TAMOXIFEN], for which the Activity entry with MCF7 [1] was “Dose-dependent effect”. The IC50 with MCF7 [1] (setting [4]) was 2100 nM.

Take `CCCCCCN(c1ccc(O)cc1)c1ccc(OCCN(CC)CC)cc1`: in the experiment on MCF7 [1], the Activity result was “Dose-dependent effect”. The IC50 in the experiment with MCF7 [1] (setting [4]) worked out at 1400 nM. Further, the result in the experiment on MCF7 [2] was inactive.

On to `CN(C)CCCOc1ccc(N(Cc2ccccc2)c2ccc(O)cc2)cc1`, for which the Activity result with MCF7 [1] was “Dose-dependent effect”. In addition, the IC50 in the experiment on MCF7 [1] (setting [4]) was determined as 2800 nM. In addition, the outcome in the experiment with MCF7 [2] was inactive.

Take `CCCCCCN(c1ccc(O)cc1)c1ccc(OCCCN(C)C)cc1`: the Activity entry with MCF7 [1] is “Dose-dependent effect”. The IC50 result in the experiment on MCF7 [1] (mcf7) is given as “Not Active”. The outcome with MCF7 [2] was inactive.

As for `CCCCCCN(c1ccc(O)cc1)c1ccc(OCCN(C)C)cc1`, the Activity result with MCF7 [1] was “Dose-dependent effect”. Also, the IC50 in the experiment with MCF7 [1] (setting [4]) stood at 2400 nM. For the same compound, the result in the experiment on MCF7 [2] was inactive.

With `O=S(=O)(c1ccccc1)N(c1ccc(O)cc1)c1ccc(OCCN2CCCCC2)cc1`, the Activity result in the experiment on MCF7 [1] was “Dose-dependent effect”. Besides, the IC50 with MCF7 [1] (setting [4]) turned out to be 320 nM. Moreover, in the experiment with MCF7 [2], the outcome was inactive.

For the compound `CCN(CC)CCOc1ccc(N(c2ccc(O)cc2)S(=O)(=O)c2ccccc2)cc1`, in the experiment on MCF7 [1], the Activity result was “Dose-dependent effect”. Further, the IC50 in the experiment on MCF7 [1] (setting [4]) is 1300 nM. Besides, the result with MCF7 [2] was inactive.

Consider `CN(C)CCCOc1ccc(N(c2ccc(O)cc2)S(=O)(=O)c2ccccc2)cc1`, for which the Activity result in the experiment with MCF7 [1] was “Dose-dependent effect”. Also, in the experiment on MCF7 [1] (setting [4]), the IC50 amounted to 2200 nM. Further, in the experiment with MCF7 [2], the result was inactive.

On to `O=S(=O)(c1ccccc1)N(c1ccc(O)cc1)c1ccc(OCCN2CCCC2)cc1`, for which, in the experiment on MCF7 [1], the Activity entry is “Dose-dependent effect”. Besides, the IC50 in the experiment with MCF7 [1] (setting [4]) was determined as 500 nM. The outcome in the experiment on MCF7 [2] was inactive.

For the compound `CCC(=C(c1ccc(O)cc1)c1ccc(OCCN(C)C)cc1)c1ccccc1`, the Activity entry with MCF7 [1] was “Dose-dependent effect”. For the same compound, the IC50 with MCF7 [1] (setting [4]) was determined as 8900 nM.

Consider `CCN(CC)CCOc1ccc(N(Cc2ccccc2)c2ccc(O)cc2)cc1`, for which, in the experiment with MCF7 [1], the Activity entry is “Dose-dependent effect”. In the experiment with MCF7 [1] (setting [4]), the IC50 is 1900 nM. The outcome in the experiment with MCF7 [2] was inactive.

The record behind these values is ChEMBL document CHEMBL3396984, “Structure-activity relationship study of diphenylamine-based estrogen receptor (ER) antagonists” (Bioorg Med Chem, 2015).
